pIC50: −log10 of the molar value. Counter-ions that a name gives are not always drawn.

One test addresses T1, Syk catalytic domain (aa 356-635 with a C-terminal His-tag) (Homo sapiens, UniProt P43405).
T1 construct: His-tag (C); made in house
Briefly: In vitro Syk kinase activity measured by trFRET, Syk catalytic domain. Format: biochemical.
Conditions: not given
The procedure, abridged:
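Kinase reaction: 0.14 nM His-tagged catalytic domain, 0.2 μM biotin-TYR1 peptide, 0.001 mM ATP in 50 mM MOPSO pH 6.5 with MgCl2, MnCl2, DTT, BSA, vanadate, ~60 min at rt, then EDTA quench. Phosphoproduct detected by trFRET (Eu anti-pTyr antibody/streptavidin-APC, 665 nm emission); IC50 from signal in linear range.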
Turning to `CC(C)(N)c1ccc(-c2nc(C3CCCCC3)n3c2cnc2[nH]ccc23)cc1` [P.3.1.1, 2-(4-(1-Cyclohexyl-6H-imidazo[1,5-a]pyrrolo[2,3-e]pyrazin-3-yl)phenyl)propan-2-amine], the pIC50 – broadly, the IC50 on a negative log10 scale, so that one unit is a factor of ten – is 6.00 to 7.00.
`COc1ccc(-c2nc([C@@H]3CC[C@H](N)C3)n3c2cnc2[nH]ccc23)cc1` [P.3.1.2] gave a pIC50 of 6.00 to 7.00.
Still for that read-out and setting: next, `CCc1c(-c2ccc(C(C)(C)N)cc2)[nH]c2ncc3cnn(C)c3c12` [P.3.1.3]: 6.00 to 7.00; `C1=C(c2ncn3c2cnc2[nH]ccc23)CCNC1` [P.3.1.4, 3-(1,2,3,6-Tetrahydropyridin-4-yl)-6H-imidazo[1,5-a]pyrrolo[2,3-e]pyrazine]: below 5.00; `Cc1nc(-c2ccc(C3(O)CCNCC3)cc2)c2cnc3[nH]ccc3n12` [P.3.1.5, 4-(4-(1-Methyl-6H-imidazo[1,5-a]pyrrolo[2,3-e]pyrazin-3-yl)phenyl)piperidin-4-ol hydrochloride]: above 7.00.
On the same count and under the same terms, next, `OC1(c2ccc(-c3ncn4c3cnc3[nH]ccc34)cc2)CCNCC1` [P.3.1.6]: above 7.00; `CC(C)(O)c1ccc(-c2nc(CN3CCNCC3)n3c2cnc2[nH]ccc23)cc1` [P.3.1.7]: 6.00 to 7.00; `CC(C)(O)c1ccc(-c2nc(CN3CCC(N)CC3)n3c2cnc2[nH]ccc23)cc1` [P.3.1.8]: 6.00 to 7.00.
Still for that read-out and setting: the value for `CC(C)(O)c1ccc(-c2nc([C@H]3CCC[C@H](N)C3)n3c2cnc2[nH]ccc23)cc1` [P.3.1.9] was above 7.00.
`CC(C)(O)c1ccc(-c2nc([C@@H]3CCNC3)n3c2cnc2[nH]ccc23)cc1` [P.3.1.10] had a pIC50 of 6.00 to 7.00.
Compound `CS(=O)(=O)c1ccc(-c2nc([C@H]3CC[C@H](N)CC3)n3c2cnc2[nH]ccc23)cc1` [P.3.1.11] gave a negative-log IC50 (pIC50) of 6.00 to 7.00.
Compound `COc1ccc(-c2ncn3c2cnc2[nH]cc(C4=CCNCC4)c23)cc1` [P.3.1.12] gave a negative-log IC50 (pIC50) of 5.00 to 6.00.
In turn, `CC1CN(Cc2nc(-c3ccc(C(C)(C)O)cc3)c3cnc4[nH]ccc4n23)CCN1` (stereo not shown) [P.3.1.13] showed a pIC50 of 6.00 to 7.00.
The compound `CCc1c(-c2ccc(C(C)(C)O)cc2)[nH]c2ncc3cncn3c12` [S.1.1] had a pIC50 above 7.00.
As to `CCc1c(-c2ccc(C(C)(C)O)cc2)[nH]c2ncc3cnc(N(C)C)n3c12` [S.1.2], the negative-log IC50 (pIC50) is 6.00 to 7.00.
The compound `Cn1nc(-c2ccc(C(C)(C)O)cc2)c2cnc3[nH]ccc3c21` [S.1.3] gave a negative-log IC50 (pIC50) above 7.00.
For `Cc1c(-c2ccc(C(C)(C)O)cc2)[nH]c2ncc3nncn3c12` [S.1.4], the pIC50 was 6.00 to 7.00.
As for `Cc1c(-c2ccc(C(C)(C)O)cc2)[nH]c2ncc3nnc(C)n3c12` [S.1.5], the negative-log IC50 (pIC50) is 5.00 to 6.00.
In the case of `CCc1c(-c2ccc(C(C)(C)O)cc2)[nH]c2ncc3cccn3c12` [S.1.6], the pIC50 is above 7.00.
Regarding `CCc1c(-c2ccc(C(C)(C)O)cc2)[nH]c2nc(C)c3cncn3c12` [S.1.7], the negative logarithm of the IC50 (pIC50) is 6.00 to 7.00.
Regarding `CCc1c(-c2ccc(C(C)(C)O)cc2)[nH]c2ncc3cnnn3c12` [S.1.8], the pIC50 is above 7.00.
With `CCc1c(-c2ccc(C(C)(C)O)cc2)[nH]c2ncc3nncn3c12` [S.1.9], the pIC50 is 6.00 to 7.00.
The compound `Cc1cnc2cnc3[nH]c(-c4ccc(C(C)(C)O)cc4)cc3n12` [S.1.10] gave a negative logarithm of the IC50 (pIC50) of 6.00 to 7.00.
The same measure, in the same setting: the value for `Cc1nc(-c2ccc(C(C)(C)O)s2)c2cnc3[nH]ccc3n12` [S.1.11] was above 7.00.

The same test, now with this note: Syk catalytic domain (aa 356-635), trFRET, 0.001 mM ATP.
Consider `COc1ccc2c(c1)c(-c1cc3c(ncc4cnn(C)c43)[nH]1)cn2CC(=O)N1CCN(C)CC1` [N.2.14], for which the pIC50 is above 7.00.
For `COc1ccc2c(c1)c(-c1cc3c(ncc4cnc([C@@H]5CCNC5)n43)[nH]1)cn2C` [T.1.1.2, (R)-7-(5-Methoxy-1-methyl-1H-indol-3-yl)-1-(pyrrolidin-3-yl)-6H-imidazo[1,5-a]pyrrolo[2,3-e]pyrazine diacetate], the negative-log IC50 (pIC50) is above 7.00.
On to `COc1ccc2c(c1)c(-c1cc3c(ncc4cnc(CCCN)n43)[nH]1)cn2C` [T.1.1.3], for which the pIC50 is above 7.00.
The same measure, in the same setting: next, `COc1ccc2c(c1)c(-c1cc3c(ncc4cnc(CCN)n43)[nH]1)cn2C` [T.1.1.4]: above 7.00.

The values above are taken from patent publication US20140349970A1 (ABBVIE INC., priority 2009, published 2014).
